Laboratory results reported in US8987309B2, “Compounds, pharmaceutical compositions and methods of use of 2-aryl pyridylazoles” (The Translational Genomics Research Institute, priority 2009, dated 2015).
pIC50: −log10 of the molar value.

Columns and labels:
[1] = test system: PC3; experiment: IC50 in tumor cell lines (PC3); assay type: cell-based; settings: prostate tumor cell line PC3
Method: (§1) Cytotoxicity Assays. Cytotoxicity assays in the mechanism of action studies were performed according to Mosmann (1983), wherein the activity of mitochondrial reductases were measured using 3-(4,5-dimethylthiozol-3-yl)-2,5-diphenyltetrozolium bromide dye. In brief, cells were seeded in 96-well plates and incubated for various times at 37° C. Inhibition of cell growth was measured by adding 3-(4,5-dimethylthiozol-3-yl)-2,5-diphenyltetrozolium bromide dye, and after an additional 4 h of incubation at 37° C., the 96-well plates were centrifuged, and the culture supernatant was removed. DMSO was added to each well to solubilize the formazan crystals, and the optical density was read at 540 nm on a Quant Spectrophotometer (BioTek Instruments, Winooski, Vt.). Cell growth inhibition data are expressed as percentage of survival compared with untreated cells. The IC50 is defined as the drug concentration required to produce 50% growth inhibition. Results are mean S.E.M. (n 3).

[2] = test system: A549; experiment: IC50 in tumor cell lines (A549); assay type: cell-based; settings: lung tumor cell line A549
Method: as §1

[3] = test system: OVCAR3; experiment: IC50 in tumor cell lines (OVCAR3); assay type: cell-based; settings: Table 2; ovarian tumor cell line OVCAR3
Method: as §1

[4] = test system: Caki-1; experiment: IC50 in tumor cell lines (Caki-1); assay type: cell-based; settings: Table 2; kidney tumor cell line Caki-1
Method: as §1

[5] = test system: BxPC3 DPC-4(−/−) cells; experiment: Measurement of cell cycle (PI flow cytometry); assay type: cell-based, Human; settings: 24 to 72 h
Method: Measurement of Cell Cycle. The percentage of cells in different cell cycle phases of division was measured by flow cytometry (Darzynkiewicz et al., 1996) using propidium iodide (PI) (Sigma-Aldrich). In brief, cells were treated with PC-046 for 24 to 72 h, fixed with 70% ethanol overnight, and then stained with 40 µg/ml PI and 0.5 mg/ml RNase A for 30 min at 37° C. PI fluorescence was measured on a FACScan (BD Biosciences, San Jose, Calif.) and analyzed using Mod-Fit (Verify Software, Topsham, Me.). Data are mean S.E.M. (n 3).
(§2) Mean±S.E.M., n=3. […] Mean±S.E.M., n=3. […] Mean tumor burden is shown.

[6] = test system: BxPC3 DPC-4(−/−) cells; experiment: Measurement of apoptosis and necrosis (Annexin V/PI); assay type: cell-based, Human; settings: 24 to 72 h, highest concentration 1500 nM
Method: Measurement of Apoptosis and Necrosis. Apoptosis and necrosis after DPC-046 treatment was measured at 24 to 72 h by flow cytometry (Vermes et al., 1995) using Annexin V-Alexa Fluor 488 (Invitrogen) and propidium iodide (BioVision, Mountain View, Calif.). Because of the greater photostability of Alexa Fluor 488 over fluorescein isothiocyanate, we substituted Alexa Fluor 488-labeled Annexin V for fluorescein isothiocyanate-labeled Annexin V. Apoptosis was measured by positive Annexin V staining, indicating the translocation of phosphatidylserine on the cell membrane of apoptotic cells, whereas necrosis was measured by dual labeling of Annexin V and propidium iodide of necrotic cells. Unstained cells were deemed alive. Fluorescence of Annexin V-Alexa Fluor 488 and PI was measured on FL1 and FL2, respectively, on a BD Biosciences FACScan using CellQuest Pro software (BD Biosciences). Data are mean S.E.M. (n 3).
as §2

[7] = test system: synthesis of DNA, RNA, or protein; experiment: Measurement of macromolecular synthesis (radiolabeled precursors); assay type: cell-based
Method: Measurement of Macromolecular Synthesis. Radiolabeled precursors of DNA ([^3H]thymidine) and protein ([^14C]valine) were obtained from GE Healthcare (Piscataway, N.J.). The RNA precursor [^3H]uridine was obtained from MP Biomedical (Irvine, Calif.). In brief, cells were plated in 96-well plates and allowed to adhere before adding DPC-046 for 24 to 72 h. Radiolabeled precursors ([…] for thymidine and uridine, and 0.05 µCi/well for valine) were added and allowed to incorporate for 6 h at 37° C. Cells were harvested onto Unifilter-96 GF/B filterplates using a Packard Filtermate 96-well harvester and counted using a Packard Top Count NXT 96-well scintillation counter (PerkinElmer Life and Analytical Sciences, Boston, Mass.).

[8] = Plasma protein binding (rapid equilibrium dialysis), human plasma; assay type: in vitro ADME; settings: plasma concentration of 3.27 μM
Method: Plasma Protein Binding. Plasma protein binding of DPC-046 was determined in human and mouse plasma using rapid equilibrium dialysis (RED) devices manufactured by Thermo Fisher Scientific. Plasma pH was adjusted to 7.4 and spiked with DPC-046 to a final plasma concentration of 1 μg/ml. Aliquots (500 μl) of the spiked plasma were placed into the sample chamber, and 750 μl of phosphate-buffered saline were placed into the adjacent chamber. Triplicate samples were loaded into the RED devices. The RED devices were incubated at 37° C. on an orbital shaker operating at 100 rpm for 24 h. […] After the incubation, aliquots of plasma and buffer were removed for the analysis of DPC-046 concentration by LC-MS-MS as described above.

[9] = Storage stability by LC-MS; assay type: physicochemical
Method: Stability Studies. LC-MS was used to evaluate the stability of DPC-046 kept at −20° C. or at 22° C., unprotected from light. After 2 years of storage, there was a measurable (8.6%) loss of parent compound when stored at −20° C. in the dark and a 43.6% loss at 22° C. in light.

[10] = target: TrkB (Homo sapiens, UniProt Q16620); experiment: Initial kinase screening (Amphora), TrkB; assay type: biochemical; set-up: assay run by Amphora Discovery Corporation (Durham, N.C.); settings: 10 μM compound
Method: Kinase Screening. Initial kinase screening was performed by Amphora Discovery Corporation (Durham, N.C.).

[11] = test system: MiaPaCa-2 tumors; experiment: Antitumor efficacy and tolerability, MiaPaCa-2 tumors in SCID mice
Method: In Vivo Studies. Six- to 7-week-old male SCID mice were implanted with 10×10^6 MiaPaCa-2 cells in MatriGel (BD Biosciences) subcutaneously in the flank to establish tumors. Once the tumors reached approximately 100 mm^3 and were palpable (approximately 3 weeks later), DPC-046 treatment was initiated. […] Mice were administered vehicle alone or 44, 55, or 66 mg/kg/day DPC-046 intraperitoneally for 5 consecutive days. Tumor size, body weight, and general health of each mouse were recorded every 3rd day for the duration of the study.
FIG. 15 depicts the antitumor efficacy of (D)PC-046 in SCID mice. 10×10^6 MiaPaCa-2 cells in MatriGel were implanted subcutaneously into the flanks of SCID mice. Mice were randomized on day 6 (arrow) and then injected with vehicle alone or 44 or 55 mg/kg/day (D)PC-046 intraperitoneally daily for 5 consecutive days. Mean tumor burden is shown. Mean±S.D. (n=4 or 5). FIG. 16 depicts the AUC of tumor size versus time of MiaPaCa-2 tumors in SCID mice.

[12] = 66 mg/kg/day i.p., 5 consecutive days, initial dose-ranging study

Chain of TrkB (Q16620 32-822): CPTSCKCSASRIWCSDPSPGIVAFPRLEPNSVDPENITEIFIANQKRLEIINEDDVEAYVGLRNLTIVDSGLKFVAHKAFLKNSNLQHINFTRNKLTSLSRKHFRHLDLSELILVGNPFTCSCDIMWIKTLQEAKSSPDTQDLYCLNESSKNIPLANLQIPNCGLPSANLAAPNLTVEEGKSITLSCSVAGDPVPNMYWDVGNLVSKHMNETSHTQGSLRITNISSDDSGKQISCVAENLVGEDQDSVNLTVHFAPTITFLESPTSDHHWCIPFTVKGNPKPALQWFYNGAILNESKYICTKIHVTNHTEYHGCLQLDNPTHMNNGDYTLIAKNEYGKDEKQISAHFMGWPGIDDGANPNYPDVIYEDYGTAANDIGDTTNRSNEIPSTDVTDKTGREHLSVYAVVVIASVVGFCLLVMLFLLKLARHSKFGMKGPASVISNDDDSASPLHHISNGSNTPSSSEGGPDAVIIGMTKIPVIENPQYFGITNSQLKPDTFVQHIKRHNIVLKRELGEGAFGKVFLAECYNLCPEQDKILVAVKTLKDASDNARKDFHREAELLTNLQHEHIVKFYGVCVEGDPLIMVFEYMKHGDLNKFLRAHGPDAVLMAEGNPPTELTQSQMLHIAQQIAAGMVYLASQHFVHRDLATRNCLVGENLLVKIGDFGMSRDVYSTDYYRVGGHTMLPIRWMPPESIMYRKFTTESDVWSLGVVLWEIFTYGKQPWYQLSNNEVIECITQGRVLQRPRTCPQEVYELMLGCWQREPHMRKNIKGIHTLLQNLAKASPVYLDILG

Structure (SMILES): COc1ccc(-c2cnc(-c3ccncc3-c3cccc(OC)c3)o2)cc1 [DPC046]
- pIC50 ([1]; Table 1): 8.19
- pIC50 ([1]; Table 2): 8.19
- pIC50 ([2]; Table 1): 7.66
- pIC50 ([2]; Table 2): 7.66
- pIC50 [3]: 7.89
- pIC50 [4]: 7.89
- effect on cell cycle phases (in words) ([5]; listed as (D)PC-046): block in the S and G2/M-phases
- effect on cell cycle phases (in words) ([5]; listed as DPC-046): reduction in the percentage of G0/G1-phase cells and a commensurate increase in G2/M-phase cells
- mechanism of cell death (in words) ([6]; listed as (D)PC-046): both early apoptotic and necrotic cell death
- mechanism of cell death (in words) ([6]; listed as DPC-046): cell death by a combination of apoptosis and necrosis
- selectivity of inhibition of DNA, RNA or protein synthesis (in words) ([7]; 24 to 72 h): no selective inhibition
- pIC50 ([7]; DNA, RNA, protein, average, at 72 h, read-out: IC50 for inhibition of synthesis of each macromolecule): ~5.52
- bound to plasma proteins [8]: 85%
- loss of parent compound ([9]; 2 years of storage at 22° C. in light): 43.6%
- loss of parent compound ([9]; 2 years of storage at −20° C. in the dark): 8.6%
- inhibition of TrkB [10]: 55%
- antitumor efficacy (in words) ([11]; 44 mg/kg/day daily for 5 days): not effective
- average loss of body weight ([11]; 55 mg/kg/day group, while receiving injections, recovered by end of study): 15.8%
- area under the tumor size X time curve vs controls (in words) ([11]; 55 mg/kg/day group, p=0.014): statistically significant reduction
- weight loss ([11]; 55 mg/kg/day, daily for 5 days, initial study): 10%
- MiaPaCa-2 tumor growth vs untreated controls (in words) ([11]; 55 mg/kg/day, daily for 5 days, preliminary data not shown): reduced MiaPaCa-2 tumor growth
- tolerability (in words) ([11]; 66 mg/kg/day i.p., 5 consecutive days): not tolerated
- death [11, 12]: 60%
- weight loss [11, 12]: −15%
- MiaPaCa-2 tumor growth vs untreated group (in words) ([11]; experiment comparing 44 or 55 mg/kg/day daily for 5 days): significant inhibition of MiaPaCa-2 tumor growth
